Reference: US20240000783A1, “COMBINATION THERAPY” (Pfizer Inc., priority 2020, published 2024)

Test system: LNCaP prostate cancer cells (AR+ spheroids)
Experiment: Multicellular tumor spheroid growth assay
Assay type: cell-based
Conditions: Homo sapiens, single agent, read-out: SGI % (percent spheroid growth inhibition); for inhibition at 0.1 µM: 100 nM; for inhibition at 1 µM: 1000 nM
Experimental: Example 1—Multicellular Tumor Spheroid Growth Assay in Human AR+ Prostate Cancer Cells (LNCaP) LNCaP prostate cancer cells were obtained from the ATCC and maintained in RPMI 1640 medium supplemented with 10% fetal bovine serum and penicillin-streptomycin as per ATCC guidelines. Cells were maintained in humidified incubator at 37° C. with 5% CO2. Spheroid assays were performed in 96 well ultralow attachment plates (ULA-96U) from Nexcelom & Thermo Fisher Scientific. […] To aid spheroid formation, dispensed cells were centrifuged at 220×g for 6 minutes in the ultralow attachment plates and allowed to form compact spheroids for 4 days prior to the initiation of treatment. After spheroids were formed, 150 μL of medium was aspirated from each well without disturbing the spheroid, and fresh RPMI medium of the same volume was added containing single agent compounds (palbociclib, COMPOUND A, or enzalutamide), or selected combinations thereof. Final concentrations of each compound in the wells were: 30 or 100 nM for palbociclib; 100, 300 or 1000 nM for COMPOUND A; and 1000 nM for enzalutamide. DMSO (0.01%) was used as the vehicle control. DMSO and all compounds were diluted in cell medium. Medium and compounds were replenished twice per week, with 3 and 4-day intervals. Replenishment was executed by aspirating 150 μL of medium per well without disturbing the spheroid and then adding the same volume of premixed medium/compound solution to spheroids. In some cases, an extended phase of treatment was followed by a ‘recovery’ phase where medium was replenished without addition of compounds. Spheroid diameter was quantified immediately following each medium change twice a week (on every 3rd or 4th day) throughout the duration of the assay. Growth of these MCTS was monitored over time to assess: (i) amplitude of response (SGI) and (ii) duration of response to single agents and combination treatments while on treatment. Average diameters of tumor spheroids were plotted in GraphPad Prism 8 and the area-under-curve (AUC) was calculated. AUC baseline was determined by the average tumor spheroid diameter at Day 0 in the vehicle (DMSO) controls. Spheroid growth inhibition, SGI, for all treatment arms was derived at the timepoint when the vehicle (DMSO) treated spheroids reach their maximal diameter (usually close to 1 mm but this can differ among cell lines); this corresponds to the last time point taken for the vehicle (DMSO) treated spheroids. SEM calculated based on n=10 to 12 wells per test group. Percent spheroid growth inhibition, or SGI %, was calculated as follows: SGI %=(1-AUC treatment/AUC DMSO)×100%.

SMILES	inhibition at 0.1 µM [%]	inhibition at 0.3 µM (300 nM) [%]	inhibition at 1 µM [%]	inhibition at 0.03 µM (30 nM) [%]
CC(C)n1c(C(C)(C)O)nc2c(F)cc(-c3nc(N[C@@H]4CCOC[C@H]4O)ncc3Cl)cc21 [COMPOUND A, 1,5-anhydro-3-({5-chloro-4-[4-fluoro-2-(2-hydroxypropan-2-yl)-1-(propan-2-yl)-1H-benzimidazol-6-yl]pyrimidin-2-yl}amino)-2,3-dideoxy-D-threo-pentitol]	27	38	53	
CNC(=O)c1ccc(N2C(=S)N(c3ccc(C#N)c(C(F)(F)F)c3)C(=O)C2(C)C)cc1F [enzalutamide, 4-[3-[4-cyano-3-(trifluoromethyl)phenyl]-5,5-dimethyl-4-oxo-2-thioxo-1-imidazolidinyl]-2-fluoro-N-methyl-benzamide]			46	
CC(=O)c1c(C)c2cnc(Nc3ccc(N4CCNCC4)cn3)nc2n(C2CCCC2)c1=O [palbociclib]	24			5
